Reference: patent US12091683B2, “Method for producing platelets, method for producing platelet product, and method for producing blood product” (MEGAKARYON CORPORATION, priority 2017, dated 2024)

Legend:
[1] = tested on: immortalized megakaryocyte cell lines (SeV2-MKCL)
Source text: The forced expression was canceled by performing culturing in a medium not containing DOX. Specifically, the immortalized megakaryocyte cell lines (SeV2-MKCL) obtained using the method (1) were washed twice with PBS (−), and suspended in a following platelet producing medium. The cell dissemination density was set to 4.0×10^5 cells/mL (×4).
The platelet producing medium was obtained by adding the components listed below to a basal medium IMDM (concentration means final concentration).

[2] = tested on: immortalized megakaryocyte cell line from iPS cells induced from SeV2-MKCL; details: high-density culture (×4), compared with control in high-density culture
Source text: iPS cells were induced by introducing c-MYC, OCT3/4, SOX2, and KLF4 into immortalized megakaryocyte cell line (SeV2-MKCL) obtained in Example 1(1-6) by the Sendai virus vector according to the method described in WO 2010/134526. Next, immortalized megakaryocyte cell lines were induced in the same manner as in Examples 1(1-1) to (1-6) except that the induced iPS cells were used instead of the human iPS cells (TKDN SeV2). Further, as to the obtained immortalized megakaryocyte cell line, the number of platelets was counted and the platelet concentration was calculated in the same manner as in Example 1(2). Then, the P/M ratio was calculated based on the megakaryocyte cell density (dissemination density) at the start of production of platelets and the platelet concentration.

[3] = tested on: immortalized megakaryocyte cell line from human iPS cells (NIH5); details: 4.0×10^5 (×4) or 6.0×10^5 cells/mL (×6), 5 days, glycine added, compared with control in high-density culture, FIG. 6A
Procedure: (§1) Immortalized megakaryocyte cell lines were induced in the same manner as in Examples 1(1-1) to (1-6) except that human iPS cells (NIH5 and NIH8) were used instead of the human iPS cells (TKDN SeV2). As to the obtained immortalized megakaryocyte cell line, the number of platelets was counted and the platelet concentration was calculated in the same manner as in Example 1(2) except that the cell dissemination density was set to 4.0×10^5 cells/mL (×4) or 6.0×10^5 cells/mL (×6) and the culture was performed for 5 days. As a control, the platelet concentration was calculated in the same manner except that the cell dissemination density was set to 1.0×10^5 cells/mL (×1), 4.0×10^5 cells/mL (×4), or 6.0×10^5 cells/mL (×6), and the glycine-non-added platelet production medium was used.
(§2) FIGS. 6A and 6B are graphs each showing the platelet concentration. […] In FIGS. 6A and 6B, the horizontal axis indicates the condition of cell dissemination density and glycine concentration, and the vertical axis indicates the platelet concentration.

[4] = tested on: immortalized megakaryocyte cell line from human iPS cells (NIH8); details: 4.0×10^5 (×4) or 6.0×10^5 cells/mL (×6), 5 days, glycine added, compared with control in high-density culture, FIG. 6B
Procedure: as §1, §2

[5] = tested on: platelets produced from immortalized megakaryocyte cell lines (SeV2-MKCL); experiment: Bioactivity of platelets produced, MFIs of CD62p and PAC-1 by flow cytometer; assay type: cell-based, human
Procedure: The bioactivity of platelets obtained in Example 1(2) was measured using a flow cytometer. Specifically, 900 μL of diluent was added to a 1.5-mL microtube, and 100 μL of culture solution after platelet production was added and mixed. Then, 200 μL of obtained solution was poured into a FACS tube, stained by adding the labeled antibody shown below, and the MFIs of CD62p and PAC-1 in platelets were analyzed using the flow cytometer. The same analysis was also performed using the flow cytometer in NC, and then the increase percentage of the MFIs of CD62p and PAC-1 in the respective samples were calculated with reference to the MFIs of CD62p and PAC-1 in NC.
FIGS. 2A and 2B are graphs each showing the increase percentage of MFIs of CD62p and PAC-1. […] In addition, the expression levels of CD62p and PAC-1 were increased in a concentration-dependent manner.
The increase percentages of MFIs of CD62p and PAC-1 were calculated in the same manner as in Example 1(3) except that platelet was produced using a platelet production medium being added with cysteine at a predetermined concentration (1, 5, or 10 mmol/L) instead of glycine. The platelet production medium contains 0.6 to 0.8 mmol/L cysteine. Therefore, the concentration of the cysteine in the platelet production medium after being added with cysteine are about 2 to about 11 mmol/L. As a control, the increase percentage of MFIs of CD62p and PAC-1 was calculated in the same manner except that no cysteine was added.

[6] = tested on: platelets produced from immortalized megakaryocyte cell lines (SeV2-MKCL); details: 10 mmol/L glycine and 20 U/mL heparin added; dissemination density ×1, ×2, ×3, ×4, ×8; compared with controls; FIG. 3
Procedure: In addition, the deterioration state of platelets obtained was evaluated based on the positive rate of Annexin V. Specifically, in measurement of the Annexin V positive rate in platelets, 100 μL of the culture solution after platelet production was poured into a FACS tube, and the solution was stained by adding the following labeled antibody and protein, diluted to 5 times with an Annexin V binding buffer (BD Biosciences) immediately before flow cytometer analysis, and then subjected to analysis.
1.0 μL anti-CD41a antibody APC label (Bio Legend 303710)
1.0 μL anti-CD42b antibody PE label (Bio Legend 303906)
5 μL Annexin V FITC label (BD Biosciences 556419)

[7] = high-density culture (×4), added glycine 5, 10, 20, 40 mmol/L, compared to control without glycine, FIGS. 2A, 2B
[8] = high-density culture, added cysteine 1, 5 or 10 mmol/L, compared to control (NC) without cysteine, FIG. 4

| Structure (SMILES) | number of platelets ([1]; 4.0×10^5 cells/mL (×4), added glycine 1, 5, 10, 20 or 40 mmol/L, 6 days, compared with high-density culture using glycine-non-added medium, FIGS. 1A, 1B) | ability of megakaryocyte to produce platelets ([1]; glycine concentration at the start of production of platelets 11 to 31 mmol/L or 11 to 21 mmol/L, high-density culture (×4)) | ability of megakaryocyte to produce platelets (P/M ratio) ([2]; any glycine concentration, FIG. 5A) | platelet concentration ([2]; FIG. 5B) | platelet concentration [3] | platelet concentration [4] | expression level of CD62p (increase percentage of MFI) [5, 7] | expression level of PAC-1 (increase percentage of MFI) [5, 7] | deterioration of platelet (percentage of Annexin V-positive cells) [6] | number of platelets [6] | expression level of CD62p (increase percentage of MFI) [5, 8] | expression level of PAC-1 (increase percentage of MFI) [5, 8] |
| --- | --- | --- | --- | --- | --- | --- | --- | --- | --- | --- | --- | --- |
| NCC(=O)O [glycine] | increased at all concentrations | further improved | improved | increased at any glycine concentration | increased at any dissemination density | increased at any dissemination density | increased at all glycine concentrations | increased at all glycine concentrations | suppressed | increased | – | – |
| N[C@@H](CS)C(=O)O [cysteine] | – | – | – | – | – | – | – | – | – | – | increased at all cysteine concentrations | increased at all cysteine concentrations |
